Reference: patent US4613590A, “Amino D-manno-2-octulopyranosidonate containing compounds, pharmaceutical compositions and method of use” (Abbott Laboratories, priority 1985, dated 1986)
Where two headings read alike, the source gives them in different places.

Columns and labels:
CMP-KDO synthetase = CMP-KDO synthetase (Escherichia coli, UniProt P04951); assay: Inhibition of CMP-KDO synthetase activity (colorimetric phosphate); assay type: biochemical, gram-negative bacteria
Method: The inhibition of CMP-KDO synthetase activity was measured in reaction mixtures buffered at pH 9.5 containing: 2 mM KDO, 5 mM magnesium cytidine triphosphate, and inorganic pyrophosphatase. The pyrophosphate generated during the course of enzyme reaction was cleaved by the pyrophosphatase to inorganic orthophosphate, the level of which was measured colorimetrically. […] Potency was assessed by determining the level of inhibitor required to inhibit the enzyme reaction by 50% under the conditions of the assay described above (I50). A potent inhibitor is defined as one having an I50 of 1 mM or less.

Serratia marcescens = assay: Mouse protection assay, Serratia marcescens; assay type: in vivo; conditions: mice infected with lethal dose of Serratia marcescens
Method: (§1) Antibacterial activity of the compounds were tested in a mouse protection assay against Escherichia Coli Juhl, Serratia marcescens and the gram positive bacterium Staphylococcus aureus.

Escherichia Coli Juhl = assay: Mouse protection assay, Escherichia Coli Juhl; assay type: in vivo; conditions: mice infected with lethal dose of Escherichia Coli Juhl
Method: as §1

Chain of CMP-KDO synthetase (P04951 whole entry): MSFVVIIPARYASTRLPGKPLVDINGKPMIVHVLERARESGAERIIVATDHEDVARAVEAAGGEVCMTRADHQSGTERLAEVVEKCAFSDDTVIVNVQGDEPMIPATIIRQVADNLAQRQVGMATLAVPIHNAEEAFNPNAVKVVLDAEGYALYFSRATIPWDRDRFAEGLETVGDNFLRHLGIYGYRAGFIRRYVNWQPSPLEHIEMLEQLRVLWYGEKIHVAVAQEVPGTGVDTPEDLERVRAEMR

Structure (SMILES) | IC50 (CMP-KDO synthetase) | ED50 (Serratia marcescens) | ED50 (Escherichia Coli Juhl) | IC50 (CMP-KDO synthetase; pH 9.5, 2 mM KDO, 5 mM magnesium cytidine triphosphate, inorganic pyrophosphatase, read-out: I50)
CCNC[C@@H](O)[C@H]1OC(O)(C(=O)O)C[C@@H](O)[C@H]1O (stereo partly drawn) [Example 6, 8-Ethylamino-3,8-dideoxy-D-manno-2-octulosonate] | 70 µM | – | – | –
CN(C)C[C@@H](O)[C@H]1OC(O)(C(=O)O)C[C@@H](O)[C@H]1O (stereo partly drawn) [Example 5, 8-Dimethylamino-3,8-dideoxy-D-manno-2-octulosonate] | 220 µM | – | – | –
NC[C@@H](O)[C@H]1O[C@H](C(=O)O)C[C@@H](O)[C@H]1O [Example 2, α-C-[1,5-anhydro-7-amino-2,7-dideoxy-D-manno-heptopyranosyl]-carboxylate] | 7 µM | 6.3 mg/kg | 3.1 mg/kg | –
NCC[C@@H](O)[C@H]1O[C@H](C(=O)O)C[C@@H](O)[C@H]1O [Example 7, α-C-[1,5 Anhydro-8-amino-2,7,8-trideoxy-D-mannooctopyranosyl] carboxylate] | – | – | – | 1.9 µM
CNC[C@@H](O)[C@H]1OC(O)(C(=O)O)C[C@@H](O)[C@H]1O (stereo partly drawn) [Example 4, 8-Methylamino-3,8-dideoxy-D-manno-2-octulosonate] | 81 µM | – | – | –
NCC(=O)NCC(=O)NC[C@@H](O)[C@H]1O[C@H](C(=O)O)C[C@@H](O)[C@H]1O [Example 3, α-C-[1,5-anhydro-7-(glycyl-glycylamino)-2,7-dideoxy-D-manno-heptopyranosyl]-carboxylate] | 230 µM | 12.5 mg/kg | 6.3 mg/kg | –
NC[C@@H](O)[C@H]1OC(O)(C(=O)O)C[C@@H](O)[C@H]1O (stereo partly drawn) [Example 1, 8-Amino-3,8-dideoxy-D-manno-2-octulosonate] | 310 µM | 30 mg/kg | 25 mg/kg | –
